Structures can show the parent of a compound that is named as a salt.
Tests used:
[1] = molecular target: benzodiazepine receptor (GABAA receptor complex), cerebral cortex membranes; assay: In vitro inhibition of 3H-flunitrazepam (3H-FNM) binding; settings: inhibition of specific 3H-FNM (1 nM) binding, rat cerebral cortex membranes
Protocol: The GABA recognition site and the benzodiazepine modulatory unit can selectively be labelled with ^3H-muscimol and ^3H-flunitrazepam, respectively.
13A: In vitro inhibition of ^3H-flunitrazepam (^3H-FNM) binding
Preparations are performed at 0-4° C. unless otherwise indicated. Cerebral cortex from male Wistar rats (150-200 g) is homogenised for 5-10 sec in 20 ml Tris-HCl (30 mM, pH 7.4) using an Ultra-Turrax homogeniser. The suspension is centrifuged at 27,000× g for 15 min and the pellet is washed three times with buffer (centrifuged at 27,000× g for 10 min). The washed pellet is homogenized in 20 ml of buffer and incubated on a water bath (37° C.) for 30 min to remove endogenous GABA and then centrifuged for 10 min at 27,000× g. The pellet is then homogenized in buffer and centrifuged for 10 min at 27,000× g. The final pellet is resuspended in 30 ml buffer and the preparation is frozen and stored at −20° C.
The membrane preparation is thawed and centrifuged at 2° C. for 10 min at 27,000× g. The pellet is washed twice with 20 ml 50 mM Tris-citrate, pH 7.1 using an Ultra-Turrax homogeniser and centrifuged for 10 min at 27,000× g. The final pellet is resuspended in 50 mM Tris-citrate, pH 7.1 (500 ml buffer per g of original tissue), and then used for binding assays. Aliquots of 0.5 ml tissue are added to 25 μl of test solution and 25 μl of ^3H-FNM (1 nM, final concentration), mixed and incubated for 40 min at 2° C., Non-specific binding is determined using Clonazepam (1 μM, final concentration). After incubation the samples are added 5 ml of ice-cold buffer and poured directly onto Whatman GFIC glass fibre filters under suction and immediately washed with 5 ml ice-cold buffer. The amount of radioactivity on the filters is determined by conventional liquid scintillation counting. Specific binding is total binding minus non-specific binding.
The test value will be given as IC50 (the concentration (μM) of the test substance which inhibits the specific binding of ^3H-FNM by 50%). [formula]
Co is specific binding in control assays, and
Cx is the specific binding in the test assay.
(The calculations assume normal mass-action kinetics).

[2] = tested on: GABAA receptor-ion channel complex (forebrain); assay: In vivo inhibition of 3H-FNM binding; set-up: species or system mouse; settings: female NMRI mice, test substance i.v., inhibition of specific [3H]FNM binding in forebrain
Protocol: 13B: In vivo inhibition of ^3H-FNM binding
[^3H]FNM can also be used for in vivo receptor labelling studies in mouse. Accumulation of [^3H]FNM binding will occur all over the brain as GABAA receptors are widely distributed.
All test substances used are solutions prepared in 10% TWEEN 80. Groups of three female NMRI mice (25 g) are injected i.v. via the tail vein with 5.0 μCi of [3H]FNM in 0.2 ml saline. Fifteen min after injection with [^3H]FNM the test substance is administered i.v. Twenty min after injection with [^3H]FNM, mice are killed by decapitation, the forebrains rapidly excised and homogenized in 12 ml of ice-cold 50 mM Tris-citrate, pH 7.1 using an Ultra-Turrax homogenizer. Three aliquots of 1 ml are immediately filtered through GF/C glass fibre filters and washed with 2×5 ml of ice-cold buffer. The amounts of radioactivity on the filters and in 200 μl of the homogenate are determined by conventional scintillation counting. Groups of untreated mice serves as controls. To determine non-specific binding groups of mice are injected with Clonazepam (25 mg/kg) i.p. 10 min before [3H]FNM injection. Specific binding is the amount of binding in controls minus the amount of binding in Clonazepam treated mice.
The ED50 value is determined from dose response curves. […] [formula]
where Co is specific binding in controls and Cx is the specific binding in mice treated with test substance.

[3] = tested on: clonic convulsions induced by pentylenetetrazol (PTZ); assay: PTZ clonic convulsions; type: in vivo; settings: female NMRI mice; for ED100: i.v., dose increasing the PTZ threshold to 100 mg PTZ/kg (linear regression); for ptz threshold at 30 mg/kg: test substance 30 mg/kg i.v., PTZ infused after 5 min, vehicle threshold 37-39 mg PTZ/kg
Protocol: The purpose of this test is to show antagonism of clonic convulsions induced by pentylenetetrazol (PTZ). PTZ induces clonic convulsions in mice after i.v. infusion. Antagonism of PTZ-induced convulsions is a measure for the agonistic character of ligands for the benzodiazepine recognition site.
Female NMRI mice (Bomholdtgaard, Ry), 20 g, 6 mice in each group are administered i.v. with vehicle or test substance. After five minutes the PTZ-solution is infused intravenously at a speed of 0.7 ml/minute through a cannula placed in the tail vein. The time from initiation of the infusion to appearance of clonic convulsions is recorded.
The dose of PTZ required for inducing convulsion in each mouse is calculated as PTZ/kg body weight. Means ±sd for each experimental group of 6 mice is calculated. ED100 is calculated by linear regression expressing the dose increasing the PTZ threshold to 100 mg PTZ/kg.
The threshold of vehicle treated controls is in the range of 37-39 mg PTZ/kg. As a control in each series of experiments PTZ is infused into 6 vehicle treated mice.

| SMILES | melting point | further results |
| --- | --- | --- |
| O=C(OCCO)c1ccc2c(c1)ncn2-c1cccc(N2CCN(CCO)CC2)c1 (as salt: HCl) | 182 to 192 °C | – |
| COCCOC(=O)c1ccc2c(c1)ncn2-c1cccc(C2CCN(C(C)=O)CC2)c1 (as salt: HCl) | 139 to 140 °C | – |
| COC(=O)CN1CCN(c2cccc(-n3cnc4cc(C(=O)OCCO)ccc43)c2)CC1 (as salt: HCl) | 150 to 155 °C | – |
| COCCOC(=O)c1ccc2c(c1)ncn2-c1cccc(C2CCN(C)CC2)c1 (as salt: HCl) | 123 to 125 °C | – |
| COCCOC(=O)c1ccc2c(c1)ncn2-c1cccc(N2CCN(CC(=O)OC)CC2)c1 (as salt: HCl) | 161 to 164 °C | – |
| CCN1CCN(c2cccc(-n3cnc4cc(C(=O)OCCOC)ccc43)c2)CC1 (as salt: HCl) | 166 to 168 °C | – |
| CCN1CC=C(c2cccc(-n3cnc4cc(C(=O)OCCOC)ccc43)c2)CC1 (as salt: HCl) | 179 to 180 °C | – |
| CN1CCN(c2cccc(-n3cnc4cc(C(=O)OCCO)ccc43)c2)CC1 (as salt: HCl) | 128 to 139 °C | – |
| COCCOC(=O)c1ccc2c(c1)ncn2-c1cccc(N2CCN(CC#N)CC2)c1 | 91 to 93 °C | – |
| COCCOC(=O)c1ccc2c(c1)ncn2-c1cccc(N2CCN(Cc3ccc(Cl)s3)CC2)c1 (as salt: HCl) | 185 to 186 °C | – |
| CN(C)CCOC(=O)c1ccc2c(c1)ncn2-c1cccc(N2CCN(CC(=O)O)CC2)c1 | 47 °C (dec.) | – |
| CCOC(=O)CN1CCN(c2cccc(-n3cnc4cc(C(=O)OCCO)ccc43)c2)CC1 (as salt: HCl) | 103 to 125 °C | – |
| CCOC(=O)N1CCN(c2cccc(-n3cnc4cc(-c5ccoc5)ccc43)c2)CC1 [Compound 7i, 5-(3-Furanyl)-1-(3-(1-ethoxycarbonyl-4-piperazinyl)-phenyl)-benzimidazole] | 131 to 132 °C | IC50 [1]: 0.8 nM; In vivo binding ED50 [2]: 1.8 mg/kg; ED100 [3]: 2.5 mg/kg; ptz threshold at 30 mg/kg [3]: 140 mg/kg |
| COC(=O)c1ccc2c(c1)ncn2-c1cccc(N2CCN(Cc3ccccc3)CC2)c1 (as salt: HCl) | 153 to 163 °C | – |
| COC(=O)c1ccc2c(c1)ncn2-c1cccc(N2CCN(CC(=O)O)CC2)c1 (as salt: HCl) | 210 to 220 °C | – |
| COCCOC(=O)c1ccc2c(c1)ncn2-c1cccc(N2CCN(Cc3ccccc3)CC2)c1 (as salt: HCl) | 172 to 177 °C | – |
| CCN1C(C)CN(c2cccc(-n3cnc4cc(C(=O)OCCOC)ccc43)c2)CC1C (centres unmarked) (as salt: HCl) | 202 to 208 °C | – |
| CCOC(=O)N1CCN(Cc2cccc(-n3cnc4cc(-c5ccoc5)ccc43)c2)CC1 (as salt: HCl) | 248 to 250 °C | – |
| CSCCOC(=O)c1ccc2c(c1)ncn2-c1cccc(N2CCN(C)CC2)c1 | 121 to 122 °C | – |
| COC(=O)c1ccc2c(c1)ncn2-c1cccc(Cn2ccnc2)c1 [Compound 1l, Methyl 1-(3-(1-imidazolylmethyl)-phenyl)-benzimidazole-5-carboxylate] | – | IC50 [1]: 12 nM; In vivo binding ED50 [2]: 0.75 mg/kg; ED100 [3]: 17 mg/kg; ptz threshold at 30 mg/kg [3]: 120 mg/kg |

| SMILES | melting point | further results |
| --- | --- | --- |
| COC(=O)c1ccc2c(c1)ncn2-c1cccc(N2CCNCC2)c1 (as salt: HCl) | 179 to 202 °C | – |
| CC(C)(C)OC(=O)CN1CCN(c2cccc(-n3cnc4cc(-c5ccoc5)ccc43)c2)CC1 | 131 to 132 °C | – |
| COC(=O)c1ccc2c(c1)ncn2-c1cccc(N2CCN(CC#N)CC2)c1 | 160 to 162 °C | – |
| COCCOC(=O)c1ccc2c(c1)ncn2-c1cccc(N2CCN(CC(N)=O)CC2)c1 (as salt: HCl) | 211 to 212 °C | – |
| CN1CCCC1COC(=O)c1cccc(-n2cnc3cc(-c4ccoc4)ccc32)c1 (centres unmarked) (as salt: HCl) | 198 to 200 °C | – |
| COCCOC(=O)c1ccc2c(c1)ncn2-c1cccc(N2CCN(C)CC2)c1 (as salt: maleate) | 136 to 137 °C | – |
| CCOC(=O)CN1C(C)CN(c2cccc(-n3cnc4cc(C(=O)OCCOC)ccc43)c2)CC1C (centres unmarked) (as salt: HCl) | 90 to 94 °C | – |
| COCCOC(=O)c1ccc2c(c1)ncn2-c1cccc(N2CCN(CCOCc3ccccc3)CC2)c1 (as salt: HCl) | 139 to 141 °C | – |
| COCCOC(=O)c1ccc2c(c1)ncn2-c1cccc(N2CCN(Cc3nnnn3C)CC2)c1 (as salt: HCl) | 196 to 198 °C | – |
| CCOC(=O)CN1CCN(Cc2cccc(-n3cnc4cc(-c5ccoc5)ccc43)c2)CC1 [Compound 7f, 5-(3-Furanyl)-1-(3-(1-ethoxycarbonylmethyl-4-piperazinylmethyl)-phenyl)-benzimidazole] | – | IC50 [1]: 0.6 nM; In vivo binding ED50 [2]: 0.17 mg/kg; ED100 [3]: 2.7 mg/kg; ptz threshold at 30 mg/kg [3]: 120 mg/kg |
| COCCOC(=O)c1ccc2c(c1)ncn2-c1cccc(N2CCN(CC(=O)O)CC2)c1 | 105 to 110 °C | – |
| CC(=O)N1CCN(CCOC(=O)c2cccc(-n3cnc4cc(-c5ccoc5)ccc43)c2)CC1 (as salt: HCl) [Compound 7j, 2-(1-Acetyl-4-piperazinyl)-ethyl 3-(5-(3-furanyl)-1-benzimidazolyl)-benzoate] | 167 to 168 °C | – |
| CCOC(=O)CN1CCN(c2cccc(-n3cnc4cc(C(=O)OCCOC)ccc43)c2)CC1 (as salt: HCl) [Compound 1b, 2-Methoxyethyl 1-(3-(4-(ethoxy-carbonyl-methyl)-1-piperazinyl)-phenyl)-benzimidazole-5-carboxylate] | 161 to 163 °C | – |
| COCCOC(=O)c1ccc2c(c1)ncn2-c1cccc(N2CCNCC2)c1 (as salt: HCl) | 191 to 205 °C | – |
| NC(=O)CN1CCN(c2cccc(-n3cnc4cc(C(=O)OCCO)ccc43)c2)CC1 (as salt: HCl) | 268 to 270 °C | – |
| COCCOC(=O)c1ccc2c(c1)ncn2-c1cccc(N2CCN(CC(=O)OC(C)(C)C)CC2)c1 (as salt: HCl) | 218 to 224 °C | – |
| COCCOC(=O)c1ccc2c(c1)ncn2-c1cccc(N2CCN(CC(=O)OC(C)C)CC2)c1 (as salt: HCl) | 155 to 159 °C | – |
| CCN(CC)C(=O)CN1CCN(c2cccc(-n3cnc4cc(C(=O)OCCO)ccc43)c2)CC1 (as salt: HCl) | 149 to 154 °C | – |
| CCN(CC)C(=O)CN1CCN(c2cccc(-n3cnc4cc(C(=O)OCCOC)ccc43)c2)CC1 (as salt: HCl) | 202 to 204 °C | – |
| COCCOC(=O)c1ccc2c(c1)ncn2-c1cccc(-n2cnc(C(=O)OC)c2)c1 (as salt: HCl) | 132 to 134 °C | – |

Reference: patent US6649609B2, “Benzimidazole derivatives and pharmaceutical compositions comprising these compounds” (Neurosearch A/S, priority 1999, dated 2003)
